Patent publication US20170071976A1, “PHARMACEUTICAL SOLUTION HAVING ANTI-TUMOR EFFECT-ENHANCING AND TOXICITY-REDUCING EFFECT, AND PHARMACEUTICAL COMPOSITION COMPRISING SAME” (priority 2014, published 2017)

Key:
Type in all cases: cell-based
[1] = test system: human colon cancer HCT-116 cells; assay: Cell invasion assayed by Transwell; settings: for Number of cells: invaded HCT-116 cells, control 76.0 ± 4.6; for Number of cells (HCT-116): invaded cells, control 65.0 ± 12.0
Description: Inhibition of invasion of human colon cancer HCT-116 cells and human lung cancer A549 cells by deuterium oxide in combination with 5-fluorouracil or gemcitabine (by the Transwell method)
(§1) 1.1. Warm water at 37° C. to 40° C. was prepared, a cryogenic vial was taken out of liquid nitrogen and immediately put into the 37° C.-40° C. warm water, followed by vigorous shaking until the cryogenic liquid was completely thawed; 1.2. The suspension of cryogenic cells was transferred to a centrifugal tube, 5 ml culture medium was added thereto, and the cells were well mixed in the medium by gentle pipetting; 1.3. The cell suspension was centrifuged at 800 to 1,000 rpm for 5 min, and the supernatant was discarded; 1.4. A complete culture medium was added to the cell pellet which was well mixed by gentle pipetting, the cell suspension was transferred to a culture flask, and the cells were cultured by supplementing culture medium.
1. […] After incubation of cells with the test drugs for 24 hours, serum was removed, and the cells were incubated under starvation with an incomplete culture medium for 24 hours; 3. Matrigel was placed at 4° C. in advance to thaw overnight; 4. Thawed Matrigel was 1:1 diluted with the incomplete culture medium, 30 μl diluted Matrigel was added to the upper compartment of Transwell and incubated at 37° C. for 120 min to gel the Matrigel; 5. Cells from different groups were digested, counted, and then adjusted to a density of 1×10^5 cells/ml with the incomplete culture medium, 100 μl cell suspension was added to the upper compartment (small compartment) of Transwell, and 500 μl medium containing 20% FBS was added to the lower compartment of Transwell; 6. A 24-well cell culture plate was placed in an incubator at 37° C. and 5% CO2 to culture the cells for 24 hours; 7. Cell counting: cells in the Matrigel and the upper compartment were wiped off with a cotton swab, the Transwell was removed, followed by inversion and air drying, 500 μl medium containing 0.1% crystal violet was added to the 24-well plate, the small compartment was placed in the medium to allow the membrane to be immersed in the dye, removed after holding at 37° C. for 30 min, washed with PBS, and photographed in 3 fields along the diameter (200× magnification) for cell counting. 8. The assay was repeated one more time.

[2] = test system: human colon cancer HCT-116 cells; assay: Cell cycle by PI single staining (flow cytometry); settings: 72 hours
Description: Effect of deuterium oxide on the cell cycle of human lung cancer A549 cells and human colon cancer HCT-116 cells
A KGA511 Cell cycle assay kit was provided by NANJING KEYGEN BIOTECH. CO., LTD.
The flow cytometer was FACS Calibur provided by Becton-Dickinson, US.
as §1, with “vial of cells” for “vial”
2.1. The original culture medium was removed by pipetting when the cell coverage reached 80% to 90% in the culture bottle; 2.2. A suitable amount of trypsin (0.25%) was added to digest for 1 to 2 min; 2.3. When all the cells became round, an equal volume of culture medium containing serum was added to cease the digestion; 2.4. The cells were blown by pipetting to suspend, then drawn into a 15 ml centrifugal tube, and centrifuged at 1000 rpm for 5 min; 2.5. The supernatant was discarded, and the cells were re-suspended in 1 to 2 ml culture medium and transferred to a culture bottle for further culturing.
1. Cells growing in the exponential phase were digested and inoculated to a 6-well plate; on the next day, after the cells attached to the wall, cell culture media containing corresponding test drugs were added according to different groups, and a negative control group was also set; 2. After treatment with test drugs for 72 hours, cells were digested with 0.25% pancreatin (EDTA-free) and collected; 3. The cells were washed with PBS once (centrifuged at 2,000 rpm for 5 min), and 5×10^5 cells were collected; 4. The prepared suspension of individual cells was fixed with 70% (v/v) ethanol for 2 hours (or overnight), and stored at 4° C.; before staining, the fixing solution was washed away with PBS (if necessary, the cell suspension was filtered once through a 200-mesh screen); 5. 100 μl RNase A was added, and the cells were water-bathed at 37° C. for 30 min; 6. 400 μl PI was added and well mixed for staining, and the cells were kept at 4° C. in darkness for 30 min; 7. In a detection apparatus, red fluorescence with an excitation wavelength of 488 nm was recorded.

[3] = test system: human lung cancer A549 cells; assay: Cell cycle by PI single staining (flow cytometry); settings: deuterium oxide 30% v/v, 72 hours
Description: Effect of deuterium oxide on the cell cycle of human lung cancer A549 cells and human colon cancer HCT-116 cells Human lung cancer A549 cells and human colon cancer HCT-116 cells were provided by NANJING […] BIOTECH. CO., LTD., and cultured in an incubator at 37° C., 5% CO2 and saturated humidity. A KGA511 Cell cycle assay kit was provided by NANJING […] BIOTECH. CO., LTD. The flow cytometer was FACS Calibur provided by Becton-Dickinson, US. […] The cell suspension was centrifuged at 800 to 1,000 rpm for 5 min, and the supernatant was discarded; 1.4. A complete culture medium was added to the cell pellet which was well mixed by gentle pipetting, the cell suspension was transferred to a culture flask, and the cells were cultured by supplementing culture medium. […] When all the cells became round, an equal volume of culture medium containing serum was added to cease the digestion; 2.4. The cells were blown by pipetting to suspend, then drawn into a 15 ml centrifugal tube, and centrifuged at 1000 rpm for 5 min; 2.5. […] 1. Cells growing in the exponential phase were digested and inoculated to a 6-well plate; on the next day, after the cells attached to the wall, cell culture media containing corresponding test drugs were added according to different groups, and a negative control group was also set; 2. […] The cells were washed with PBS once (centrifuged at 2,000 rpm for 5 min), and 5×10^5 cells were collected; 4. […] In a detection apparatus, red fluorescence with an excitation wavelength of 488 nm was recorded.

Structure (SMILES): O=c1[nH]cc(F)c(=O)[nH]1 [Example 5-FU, 5-fluorouracil]
- Number of cells ([1]; 5-FU 0.195 ug/ml in NS): 66.0 ± 2.6
- Number of cells ([1]; 5-FU 0.39 ug/ml in NS): 47.3 ± 4.0
- Number of cells ([1]; 5-FU 0.78 ug/ml in NS): 31.3 ± 1.5
- Number of cells ([1]; 5-FU 1.56 ug/ml in NS): 23.0 ± 4.6
- Number of cells ([1]; 5-FU 3.125 ug/ml in NS): 12.0 ± 2.0
- Number of cells ([1]; 5-FU 6.25 ug/ml in NS): 10.7 ± 1.5
- Number of cells ([1]; 5-FU 12.5 ug/ml in NS): 6.3 ± 0.6
- G1 Phase ([2]; 5-FU 12.5 ug/ml in NS): 32.69 ± 8.66%
- G2 Phase ([2]; 5-FU 12.5 ug/ml in NS): 41.24 ± 2.97%
- S Phase ([2]; 5-FU 12.5 ug/ml in NS): 26.07 ± 11.32%

Structure (SMILES): [2H]O[2H] [Deuterium oxide]
- Number of cells (HCT-116) ([1]; deuterium oxide 1.8% (v/v)): 29.3 ± 5.1
- Number of cells (HCT-116) ([1]; deuterium oxide 7.5% (v/v)): 3.7 ± 0.6
- Number of cells (HCT-116) ([1]; deuterium oxide 15% (v/v)): 3.0 ± 1.0
- Number of cells (HCT-116) ([1]; deuterium oxide 30% (v/v)): 1.70 ± 0.6
- Number of cells (HCT-116) ([1]; deuterium oxide […] (v/v)): 16.3 ± 3.2
- G2 Phase ([3]; control 6.21 ± 4.52): 13.47 ± 3.94%
- S Phase ([3]; control 13.50 ± 1.33): 0.31 ± 0.28%
- G1 Phase ([3]; control 80.29 ± 5.02): 86.23 ± 3.69%
- G2 Phase ([2]; deuterium oxide 30% v/v, control 8.06 ± 1.89): 4.21 ± 0.95%
- S Phase ([2]; deuterium oxide 30% v/v, control 9.40 ± 1.83): 6.61 ± 1.41%
- G1 Phase ([2]; deuterium oxide 30% v/v, control 82.53 ± 1.76): 89.19 ± 3.81%
